The values that follow come from patent US20260256779A1, “PYRIDAZIN-3-CARBOXAMIDE COMPOUND AS TYK2 INHIBITOR” (Guangzhou Fermion Technology Co., Ltd., priority 2022, published 2026).

Where only a bound is given, the exact number is not on record here.

One series deals with T1, TYK2 JH2 pseudokinase (Homo sapiens, UniProt P29597).
T1 construct: 5 μL of 3×TYK2 JH2 kinase (Bioduro); purchased Bioduro
The series is described as follows: TYK2 JH2 in vitro enzyme binding assay (TR-FRET). The settings on record: 60 min at room temperature. How it is done:
Purpose: The purpose of this test example was to use a fluorescence resonance energy transfer (TR-FRET) method to test the binding effect of the compound on a TYK2 JH2 pseudokinase, and then evaluate the affinity of the compound for TYK2 JH2.
DMSO-dissolved compounds were used to prepare 10 mM stock solutions, then 200× compounds having different gradient concentrations were prepared in a compound dilution plate, and transferred to an Echo plate. 75 nL of the compounds were transferred from the Echo plate to a 384-well assay plate using an Echo instrument, and 5 μL of 3×TYK2 JH2 kinase (Bioduro), 5 μL of 3× Tb antibody (Cisbio) and 5 μL of 3×TRACER (Bioduro) were added to the 384-well assay plate, centrifuged for 30 seconds, and incubated at room temperature for 60 minutes. A 495 nm/520 nm fluorescence signal ratio was read by an Envision microplate reader (PerkinElmer), and data was analyzed using XL-Fit software to calculate the IC50 of the compound.

Series [1] is described as follows: Pharmacokinetic evaluation by intravenous injection or oral gavage in mice. Format: in vivo. The settings on record: ICR mice; for AUC(0-t) / Cmax / Tmax / half-life / clearance / Vd: mouse, plasma; for Vd: read-out: Vz. The procedure:
The inventors evaluated the pharmacokinetic properties of the compound of the present invention in mice.
The compound of the present invention was administered to the test animals in the form of 5% DMA+5% Solutol+90% saline or 5% ethanol+5% TPGS+90% PEG300 solvent. The animals were fasted for 12 hours before administration and had free access to water. For the intravenous administration group, the dose was 1 mg/kg. The drug was administered by intragastric administration at a dose of 10 mg/kg. After the drug administration, blood was intravenously drawn from the animals at the following time points (blood volume was approximately 0.3 mL): 0.083, 0.25, 0.5, 1.0, 2.0, 4.0, 8.0 and 24 h. EDTA-K2 was pre-added to blood collection tubes as an anticoagulant, and the blood samples were centrifuged at 6800 g for 6 min to collect plasma, which was then stored at −80° C.
Sample preparation for LC-MS/MS assay: 15 μL of plasma samples was used for protein precipitation with 300 μL of methanol containing 100 ng/mL IS (IS was tolbutamide). The mixture was vortexed for 1 min and then centrifuged at 18000 g for 10 min. 300 μL of the supernatant was transferred to a 96-well plate. 2 μL of the supernatant was subjected to LC-MS/MS analysis.

Series [2] concerns IL-2-induced CD3+ pSTAT5 (JAK1/3) in hPBMC. The experiment in a line: IL-2-induced STAT5 phosphorylation (JAK1/3) in CD3+ cell subpopulations in human PBMC, flow cytometry. The class given is cell-based. The settings on record: CD3+ cells, IL-2 stimulation. The procedure: Purpose: The purpose of this test example was to test the inhibitory effect of the compound on IL-2-induced STAT5 phosphorylation using protein phosphorylation flow cytometric analysis technology.
Human PBMC cells were pre-incubated with the compounds, STAT5 was induced to phosphorylate under appropriate stimulation conditions, and corresponding cell subpopulations and targets were stained. Flow cytometry was used to read cell data and analyze the strength of phosphorylated antibody signals under different compound concentrations. PBMCs were resuspended and dispensed into a 96-well plate, 62.5 μL/well. 3.5 μL of 20× compound working solutions were added and incubated at 37° C. for 30 minutes. 5 μL of PE Mouse Anti-Human CD3 (BD) was added and incubated at 37° C. in the dark for 30 minutes. 4 μL of 20× IL-2 (R&D) was added to each well and incubated at 37° C. in the dark for 20 minutes. All cells in the 96-well plate were transferred to a deep-well plate, 400 μL of a fixation working solution (Biolegend) was added to each well, and incubated at room temperature in the dark for 20 minutes. The cells were washed twice with PBS, and 400 μL of Perm Buffer III (BD) was added and incubated at 4° C. in the dark for 40 minutes. The cells were washed twice with PBS, and 100 μL of a STAT5 pY694 antibody working solution (BD) was added and incubated at room temperature for 40 minutes. After washing once with PBS, the cells were resuspended in 200 μL of a staining buffer and transferred to a sample plate. The antibody fluorescence intensity was analyzed using FlowJo software, and the IC50 of the compound was calculated using XL-Fit software.
On the technique in general: Flow cytometry measures light scatter and fluorescence of single cells or particles in a stream.

[3] abbreviates: intragastric administration, 10 mg/kg.
Where [4] appears, read: po, intragastric administration, 10 mg/kg.
The mark [5] stands for this setting: intravenous administration, 1 mg/kg.

T1 sequence (P29597 589-875 limits assumed): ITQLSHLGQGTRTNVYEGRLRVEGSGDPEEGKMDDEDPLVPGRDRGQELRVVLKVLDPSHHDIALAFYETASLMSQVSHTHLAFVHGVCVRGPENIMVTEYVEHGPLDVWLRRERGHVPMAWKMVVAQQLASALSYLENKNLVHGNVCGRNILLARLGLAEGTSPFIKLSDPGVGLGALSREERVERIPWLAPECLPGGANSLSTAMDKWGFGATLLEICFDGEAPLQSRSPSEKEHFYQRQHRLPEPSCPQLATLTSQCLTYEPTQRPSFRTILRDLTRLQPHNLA

On to `CCONC(=O)c1nnc(NC(=O)C2CC2)cc1Nc1cc(F)cc(-c2ncn(C)n2)c1OC` [Compound 4, 6-(Cyclopropylcarboxamido)-N-ethoxy-4-((5-fluoro-2-methoxy-3-(1-methyl-1H-1,2,4-triazol-3-yl)phenyl)amino)pyridazine-3-carboxamide], for which the IC50 (usually the midpoint of a concentration-inhibition curve) on TYK2 JH2 pseudokinase was found to be 0.2 nM.
Consider `[2H]C([2H])([2H])n1cnc(-c2cccc(Nc3cc(NC(=O)C4CC4)nnc3C(=O)NOCC)c2OC)n1` [Compound 5, 6-(Cyclopropylcarboxamido)-N-ethoxy-4-((2-methoxy-3-(1-(methyl-d3)-1H-1,2,4-triazol-3-yl)phenyl)amino)pyridazine-3-carboxamide], for which the IC50 on TYK2 JH2 pseudokinase stood at 0.26 nM.
The same measure, in the same setting: the result for `CCONC(=O)c1nnc(NC(=O)C2CC2)cc1Nc1cccc(-c2ncn(C)n2)c1OC` [Compound 3, 6-(Cyclopropylcarboxamido)-N-ethoxy-4-((2-methoxy-3-(1-methyl-1H-1,2,4-triazol-3-yl)phenyl)amino)pyridazine-3-carboxamide] reads 0.13 nM.
`CCONC(=O)c1nnc(NC(=O)C2CC2)cc1Nc1cccc(-c2ncn(C3CC3)n2)c1OC` [Compound 7, 6-(Cyclopropylcarboxamido)-4-((3-(1-cyclopropyl-1H-1,2,4-triazol-3-yl)-2-methoxyphenyl)amino)-N-ethoxypyridazine-3-carboxamide] registered a F in series [1] (setting [3]) of 29.09%. Besides, in series [1] (setting [4]), the AUC(0-t) (commonly the area under the concentration-time curve up to a stated or last time point) came out at 7850 ng·h/mL, the concentration peaked (Cmax) at 3460 ng/mL, the Tmax (commonly the time from dosing to the highest level) was found to be 0.83 h and the half-life (usually the time needed for the level to fall by half in the phase considered) was 3.75 h. In series [1] (setting [5]), the AUC(0-t) was 2700 ng·h/mL, the highest concentration (Cmax) (commonly the highest concentration seen after dosing) is 3620 ng/mL, the Tmax was 0.08 h and the clearance turned out to be 6.13 mL/min/kg. Also, in series [1] (setting [5]), the half-life is 1.51 h and the Vd is 0.81 L/kg. The molecule also yielded an IC50 at TYK2 JH2 pseudokinase of 0.17 nM. The molecule also yielded an IC50 in series [2] above 30000 nM.
For `[2H]C([2H])([2H])n1cnc(-c2cc(F)cc(Nc3cc(NC(=O)C4CC4)nnc3C(=O)NOCC)c2OC)n1` [Compound 6, 6-(Cyclopropylcarboxamido)-N-ethoxy-4-((5-fluoro-2-methoxy-3-(1-(methyl-d3)-1H-1,2,4-triazol-3-yl)phenyl)amino)pyridazine-3-carboxamide], the IC50 at TYK2 JH2 pseudokinase stood at 0.3 nM.
`[2H]C([2H])([2H])ONC(=O)c1nnc(NC(=O)C2CC2)cc1Nc1cccc(-c2ncn(C3CC3)n2)c1OC` [Compound 16, 6-(Cyclopropanamido)-4-((3-(1-cyclopropyl-1H-1,2,4-triazol-3-yl)-2-methoxyphenyl)amino)-N-(methoxy-d3)pyridazine-3-carboxamide]: the IC50 on TYK2 JH2 pseudokinase was determined as 0.29 nM.
`CONC(=O)c1nnc(NC(=O)C2CC2)cc1Nc1cccc(-c2ncn(C)n2)c1OC` [Compound 1, 6-(Cyclopropylcarboxamido)-N-methoxy-4-((2-methoxy-3-(1-methyl-1H-1,2,4-triazol-3-yl)phenyl)amino)pyridazine-3-carboxamide]: the IC50 on TYK2 JH2 pseudokinase amounted to 0.17 nM.
In series [1] (setting [3]), `[2H]C([2H])([2H])Oc1c(Nc2cc(NC(=O)C3CC3)nnc2C(=O)NOCC)cccc1-c1ncn(C2CC2)n1` [Compound 9, 6-(Cyclopropylcarboxamido)-4-((3-(1-cyclopropyl-1H-1,2,4-triazol-3-yl)-2-(methoxy-d3)phenyl)amino)-N-ethoxypyridazine-3-carboxamide] came in with an F of 72.48%. For the same molecule, in series [1] (setting [4]), the area under the curve AUC(0-t) was found to be 20100 ng·h/mL, the peak level (Cmax) was 9220 ng/mL, the Tmax was 0.67 h and the half-life was 4.64 h. In series [1] (setting [5]), the AUC(0-t) came to 2780 ng·h/mL, the peak concentration (Cmax) worked out at 3730 ng/mL, the Tmax was found to be 0.08 h and the clearance is 6.09 mL/min/kg. In addition, in series [1] (setting [5]), the half-life was 4.3 h and the Vd came to 1.8 L/kg. Further, at TYK2 JH2 pseudokinase, the IC50 worked out at 0.22 nM. The IC50 in series [2] was above 30000 nM.
As for `CONC(=O)c1nnc(Nc2cccc(C#N)n2)cc1Nc1cccc(-c2ncn(C)n2)c1OC` [Compound 2, 6-((6-cyanopyridin-2-yl)amino)-N-methoxy-4-((2-methoxy-3-(1-methyl-1H-1,2,4-triazol-3-yl)phenyl)amino)pyridazine-3-carboxamide], the IC50 at TYK2 JH2 pseudokinase turned out to be 0.16 nM.
`CCONC(=O)c1nnc(NC(=O)C2CC2)cc1Nc1cc(F)cc(-c2ncn(C3CC3)n2)c1OC` [Compound 8, 6-(Cyclopropylcarboxamido)-4-((3-(1-cyclopropyl-1H-1,2,4-triazol-3-yl)-5-fluoro-2-methoxyphenyl)amino)-N-ethoxypyridazine-3-carboxamide] returned an IC50 on TYK2 JH2 pseudokinase of 0.33 nM.
Still for that read-out and setting: the result for `[2H]C([2H])([2H])ONC(=O)c1nnc(NC(=O)C2CC2)cc1Nc1cccc(-c2ncn(C)n2)c1OC` [Compound 14, 6-(Cyclopropylcarboxamido)-N-(methoxy-d3)-4-((2-methoxy-3-(1-methyl-1H-1,2,4-triazol-3-yl)phenyl)amino)pyridazine-3-carboxamide] reads 0.27 nM.
`[2H]C([2H])([2H])C([2H])([2H])ONC(=O)c1nnc(NC(=O)C2CC2)cc1Nc1cccc(-c2ncn(C3CC3)n2)c1OC` [Compound 17, 6-(Cyclopropylcarboxamido)-4-((3-(1-cyclopropyl-1H-1,2,4-triazol-3-yl)-2-methoxyphenyl)amino)-N-(ethoxy-d5)pyridazine-3-carboxamide]: in series [1] (setting [3]), the F is 94.13%. Moreover, in series [1] (setting [4]), the AUC(0-t) came out at 17500 ng·h/mL, the Cmax amounted to 5640 ng/mL, the Tmax turned out to be 0.67 h and the half-life was 5.03 h. Also, in series [1] (setting [5]), the AUC(0-t) worked out at 1860 ng·h/mL, the Cmax was found to be 3400 ng/mL, the Tmax was 0.08 h and the clearance worked out at 9.13 mL/min/kg. Moreover, in series [1] (setting [5]), the half-life is 3.61 h and the Vd turned out to be 2.77 L/kg. Moreover, the IC50 on TYK2 JH2 pseudokinase turned out to be 0.19 nM. The IC50 in series [2] is above 30000 nM.
On TYK2 JH2 pseudokinase, `[2H]C([2H])([2H])C([2H])([2H])ONC(=O)c1nnc(NC(=O)C2CC2)cc1Nc1cccc(-c2ncn(C)n2)c1OC` [Compound 15, 6-(Cyclopropylcarboxamido)-N-(ethoxy-d5)-4-((2-methoxy-3-(1-methyl-1H-1,2,4-triazol-3-yl)phenyl)amino)pyridazine-3-carboxamide] displayed an IC50 of 0.14 nM.
BMS-986165 [reference compound] registered an IC50 in series [2] of 409 nM.
